According to US20090123389A1, “Methods for modulating Th17 cell development in the treatment and prevention of cellulite” (priority 2007, published 2009):

Key:
RORγt = RORγt expression (real-time PCR) and RORγt retroviral transduction; format: cell-based, mouse; settings: 10 nM HF
Experimental: T cells were harvested at the indicated times following activation, RNA was isolated and quantitative real-time PCR was performed using RORγt-specific primers and taqman probe. RORγt expression was normalized to Gapdh levels, and the data are presented as fold changes relative to naïve T cells.
Infected T cells were expanded and restimulated on day 4 for intracellular staining. MIG- and MIG.RORγt-transduced cells were gated based on GFP fluorescence.
FIG. 16C is a graph depicting the percent of Th17 cells (IL-17^+ IFNγ^−) in cultures of MIG-transduced (black bars) or MIG.RORγt-transduced (white bars) T cells as determined by intracellular cytokine staining were normalized to DMSO-treated cultures. The data are presented as mean values±SD on duplicate samples. […]
Quantitative real-time PCR: T cells were activated as described above, collected at the indicated times and pellets were flash-frozen in liquid nitrogen. […] RORγt expression was determined after reverse transcription using the message sensor kit (Ambion, Austin, Tex.) per manufacturers instructions and taqman primers and probe as described elsewhere (I. Ivanov, et al., Cell 126, 1121, 2006). Sybrgreen quantitative real-time PCR was performed on T cell RNA samples following reverse transcription via SuperScript II first-strand cDNA synthesis kit (Invitrogen, Carlsbad, Calif.). […]

dermal ECM deposition = settings: cited from earlier work
T-cells and fibroblasts = assay: Non-specific effects at high concentrations in vitro; format: cell-based; settings: about 80 nM HF, primary T-cells
CD4+ CD25− T cells = assay: DNA microarray transcriptional profile of T cells activated in Th17-priming conditions; format: cell-based, mouse; settings: 10 nM

O=C(CC1NCCCC1O)Cn1cnc2cc(Br)c(Cl)cc2c1=O (racemic) [HF, 7-bromo-6-chloro-3-[3-(3-hydroxy-2-piperidinyl)-2-oxopropyl]-4(3H)-quinazolinone]
upregulation of RORγt or RORγ during Th17 differentiation (RORγt): did not interfere
excess dermal ECM deposition (dermal ECM deposition; intra-peritoneally, added to food, or applied locally): reduces excess dermal ECM deposition
wound healing (dermal ECM deposition; topical HF, animal models): facilitate wound healing
T-cell proliferation at high concentrations (T-cells and fibroblasts): generalized inhibition
annotated genes differentially expressed at both time points in HF- versus MAZ1310-treated cells (CD4+ CD25− T cells; 3 and 6 hours): 81
Aars transcript fold increase, HF vs. MAZ1310 (CD4+ CD25− T cells; 3 hr, Th17-priming conditions): 2.7 ± 0.4 fold
Aff1 transcript fold increase, HF vs. MAZ1310 (CD4+ CD25− T cells; 3 hr, Th17-priming conditions): 2.3 ± 0.4 fold
Aldh18a1 transcript fold increase, HF vs. MAZ1310 (CD4+ CD25− T cells; 3 hr, Th17-priming conditions): 2.1 ± 0.5 fold
Asns transcript fold increase, HF vs. MAZ1310 (CD4+ CD25− T cells; 3 hr, Th17-priming conditions): 6.1 ± 1.2 fold
Atf3 transcript fold increase, HF vs. MAZ1310 (CD4+ CD25− T cells; 3 hr, Th17-priming conditions): 3.0 ± 0.1 fold
Atf5 transcript fold increase, HF vs. MAZ1310 (CD4+ CD25− T cells; 3 hr, Th17-priming conditions): 2.4 ± 0.1 fold
Cars transcript fold increase, HF vs. MAZ1310 (CD4+ CD25− T cells; 3 hr, Th17-priming conditions): 2.2 ± 0.4 fold
Cd274 transcript fold increase, HF vs. MAZ1310 (CD4+ CD25− T cells; 3 hr, Th17-priming conditions): 2.1 ± 0.2 fold
Cebpb transcript fold increase, HF vs. MAZ1310 (CD4+ CD25− T cells; 3 hr, Th17-priming conditions): 3.9 ± 0.5 fold
Cebpg transcript fold increase, HF vs. MAZ1310 (CD4+ CD25− T cells; 3 hr, Th17-priming conditions): 2.5 ± 0.5 fold
Chd2 transcript fold increase, HF vs. MAZ1310 (CD4+ CD25− T cells; 3 hr, Th17-priming conditions): 2.2 ± 0.3 fold
Cldn12 transcript fold increase, HF vs. MAZ1310 (CD4+ CD25− T cells; 3 hr, Th17-priming conditions): 3.2 ± 0.7 fold
Clic4 transcript fold increase, HF vs. MAZ1310 (CD4+ CD25− T cells; 3 hr, Th17-priming conditions): 2.4 ± 0.2 fold
Cth transcript fold increase, HF vs. MAZ1310 (CD4+ CD25− T cells; 3 hr, Th17-priming conditions): 2.2 ± 0.7 fold
Cxcl10 transcript fold increase, HF vs. MAZ1310 (CD4+ CD25− T cells; 3 hr, Th17-priming conditions): 2.1 ± 0.3 fold
D8Ertd56e transcript fold increase, HF vs. MAZ1310 (CD4+ CD25− T cells; 3 hr, Th17-priming conditions): 2.1 ± 0.3 fold
Ddit3 transcript fold increase, HF vs. MAZ1310 (CD4+ CD25− T cells; 3 hr, Th17-priming conditions): 5.6 ± 1.1 fold
Eif4Ebp1 transcript fold increase, HF vs. MAZ1310 (CD4+ CD25− T cells; 3 hr, Th17-priming conditions): 6.8 ± 1.8 fold
Gpt2 transcript fold increase, HF vs. MAZ1310 (CD4+ CD25− T cells; 3 hr, Th17-priming conditions): 10.0 ± 1.2 fold
Herpud1 transcript fold increase, HF vs. MAZ1310 (CD4+ CD25− T cells; 3 hr, Th17-priming conditions): 2.4 ± 0.3 fold
Icam1 transcript fold increase, HF vs. MAZ1310 (CD4+ CD25− T cells; 3 hr, Th17-priming conditions): 2.0 ± 0.1 fold
Irf1 transcript fold increase, HF vs. MAZ1310 (CD4+ CD25− T cells; 3 hr, Th17-priming conditions): 2.0 ± 0.3 fold
Lars transcript fold increase, HF vs. MAZ1310 (CD4+ CD25− T cells; 3 hr, Th17-priming conditions): 2.3 ± 0.3 fold
Mpa2l transcript fold increase, HF vs. MAZ1310 (CD4+ CD25− T cells; 3 hr, Th17-priming conditions): 2.3 ± 0.3 fold
Ncoa7 transcript fold increase, HF vs. MAZ1310 (CD4+ CD25− T cells; 3 hr, Th17-priming conditions): 3.0 ± 0.3 fold
Nfkbiz transcript fold increase, HF vs. MAZ1310 (CD4+ CD25− T cells; 3 hr, Th17-priming conditions): 2.0 ± 0.3 fold
Pck2 transcript fold increase, HF vs. MAZ1310 (CD4+ CD25− T cells; 3 hr, Th17-priming conditions): 4.9 ± 0.8 fold
Pdcd1lg2 transcript fold increase, HF vs. MAZ1310 (CD4+ CD25− T cells; 3 hr, Th17-priming conditions): 3.2 ± 0.7 fold
Phgdh transcript fold increase, HF vs. MAZ1310 (CD4+ CD25− T cells; 3 hr, Th17-priming conditions): 3.8 ± 0.9 fold
Psat1 transcript fold increase, HF vs. MAZ1310 (CD4+ CD25− T cells; 3 hr, Th17-priming conditions): 2.1 ± 0.5 fold
Psph transcript fold increase, HF vs. MAZ1310 (CD4+ CD25− T cells; 3 hr, Th17-priming conditions): 3.5 ± 0.4 fold
Pvr transcript fold increase, HF vs. MAZ1310 (CD4+ CD25− T cells; 3 hr, Th17-priming conditions): 2.0 ± 0.3 fold
Pycr1 transcript fold increase, HF vs. MAZ1310 (CD4+ CD25− T cells; 3 hr, Th17-priming conditions): 4.6 ± 0.7 fold
Pycs transcript fold increase, HF vs. MAZ1310 (CD4+ CD25− T cells; 3 hr, Th17-priming conditions): 2.1 ± 0.2 fold
Sars1 transcript fold increase, HF vs. MAZ1310 (CD4+ CD25− T cells; 3 hr, Th17-priming conditions): 2.0 ± 0.3 fold
Sesn2 transcript fold increase, HF vs. MAZ1310 (CD4+ CD25− T cells; 3 hr, Th17-priming conditions): 2.6 ± 0.3 fold
Slamf7 transcript fold increase, HF vs. MAZ1310 (CD4+ CD25− T cells; 3 hr, Th17-priming conditions): 2.2 ± 0.4 fold
Slc1a4 transcript fold increase, HF vs. MAZ1310 (CD4+ CD25− T cells; 3 hr, Th17-priming conditions): 3.2 ± 0.9 fold
Slc5a9 transcript fold increase, HF vs. MAZ1310 (CD4+ CD25− T cells; 3 hr, Th17-priming conditions): 2.4 ± 0.3 fold
Slc7a3 transcript fold increase, HF vs. MAZ1310 (CD4+ CD25− T cells; 3 hr, Th17-priming conditions): 2.0 ± 0.2 fold
Slc14a1 transcript fold increase, HF vs. MAZ1310 (CD4+ CD25− T cells; 3 hr, Th17-priming conditions): 2.0 ± 0.1 fold
Trib3 transcript fold increase, HF vs. MAZ1310 (CD4+ CD25− T cells; 3 hr, Th17-priming conditions): 7.1 ± 2.0 fold
Trim12 transcript fold increase, HF vs. MAZ1310 (CD4+ CD25− T cells; 3 hr, Th17-priming conditions): 2.4 ± 0.1 fold
